Assay results as given in patent US11125741B2, “Compositions and methods for the detection of zinc” (Northwestern University, priority 2012, dated 2021).

Columns and labels:
[1] = tested on: mouse eggs; experiment: Time-lapse imaging of zinc sparks and calcium transients in parthenogenetically activated eggs; type: cell-based
Experimental: Time-lapse imaging of parthenogenetically activated eggs. Eggs were first incubated in 10 μM Calcium Green-1 AM (Invitrogen) and 0.04% (w/v) Pluronic F-127 (Invitrogen) for either 30 min (mouse) or 60 min (non-human primate) at 37° C. Mouse eggs were washed in calcium-free KSOM (Millipore) and transferred to a 50 μl drop containing 10 mM SrCl2 (Sigma-Aldrich) and 50 μM FluoZin-3 (Invitrogen) on a glass-bottom dish (Bioptechs Inc.). Non-human primate eggs were transferred to one end of a long and shallow drop (20 μl) of calcium-free KSOM (Millipore) containing 50 μM FluoZin-3 (Invitrogen) on a glass-bottom dish (Bioptechs Inc.), covered with oil for embryo culture (Irvine Scientific, Santa Ana, Calif.). Ionomycin was perfused in at the opposite end to a final concentration of 20 μM. In both cases, image acquisition began immediately and occurred every 4 s for a total of 1-3 hours (mouse) or 15 min (non-human primate), unless noted otherwise. All images were acquired on a TCS SP5 confocal microscope (Leica Microsystems) equipped with a stage top incubator (Tokai Hit), 20× objective, and an Ar (488 nm) laser line.
Additional experiments were consistent with this determination. […] Second, zinc sparks were absent in eggs treated with the membrane permeable acetoxymethyl ester (AM) derivative of 1,2-bis(o-aminophenoxy)ethane-N,N,N′,N′-tetraacetic acid (BAPTA).
The polarization of the zinc-enriched vesicles mirrors that of the cortical granules (CG), which are exocytic vesicles that participate in the cortical reaction, which involves the hardening of the zona pellucida to establish a block to polyspermy at fertilization (Ducibella. (1996) Hum Reprod Update 2, 29-42.; herein incorporated by reference in its entirety). […] In most cases, subsequent sparks were inhibited (SEE FIG. 9). Experiments conducted during development of embodiments of the present invention indicate that zinc-containing vesicles are pre-fused with the egg membrane, allowing the first spark to occur even in the presence of CytoB. This type of phenomenon has been described for cortical granules in the sea urchin egg, where one subset of CGs are in a hemifused state prior to activation21.

[2] = tested on: mouse eggs; experiment: TPEN treatment and spindle imaging of mouse eggs; type: cell-based; settings: 10 μM, 8 hrs of culture
Experimental: FIGS. 12a-e show perturbation of intracellular zinc availability causes activation of the egg. Following 8 hours of culture, control eggs maintain a metaphase II spindle (a, sp) with individual chromosomes aligned at the metaphase plate (b). In contrast, eggs exposed to 10 μM TPEN for the same period artificially activate as indicated by the formation of an intact pronucleus (c, pn) with decondensed chromatin surrounding a nucleolus (d).
TPEN treatment and spindle imaging of mouse eggs. Superovulated eggs were collected and transferred to KSOM medium (Millipore) with or without 10 μM TPEN and cultured up to 8 hrs at 37° C. in an atmosphere of 5% CO2 in air. […] Eggs were fixed and permeabilized for 30 min at 37° C. in a solution containing 2% formaldehyde, 2% Triton X-100, 100 mM PIPES, 5 mM MgCl2, and 2.4 mM EGTA. Eggs were then washed and blocked for 1-3 hrs in 1× PBS containing 0.1 M glycine, 3 mg/mL BSA, 0.01% Tween-20, and 0.01% sodium azide followed by incubation with […] (1:100, Sigma) in blocking buffer for 1 hr at 37° C. Eggs were washed again in blocking buffer, incubated in Alexa Fluor 488-conjugated goat anti-mouse IgG (Invitrogen) and rhodamine-phalloidin conjugate (Invitrogen) at 37° C. for 1 hr, washed three additional times, and mounted on microscopy slides with coverslips in Vectashield with DAPI. […]

[3] = tested on: activated mouse eggs; settings: 10 μM, 10 min at 1.5 hpa
[4] = Gee et al. 2002; cited from earlier work
[5] = pM reflects the log of the free ion concentration; cited from earlier work
[6] = treated prior to strontium chloride activation

Compound: c1ccc(CN(CCN(Cc2ccccn2)Cc2ccccn2)Cc2ccccn2)nc1 [TPEN]
- zinc sparks in zinc-insufficient eggs ([1]; oocytes treated during in vitro maturation, then activated): did not undergo zinc sparks
- egg activation (pronucleus-like structure) [2]: had a pronucleus-like structure at significantly higher rates

Compound: zinc pyrithione [ZnPT]
- eggs lacking a pronucleus with aligned chromosomes [3]: eighty-four
- eggs that formed a pronucleus ([3]; scored 6-8 hpa): seventeen

Compound: C=C1[C@@H](C)[C@H]2[C@H](Cc3ccccc3)NC(=O)[C@]23OC(=O)/C=C/[C@H](O)CCC[C@@H](C)C/C=C/[C@H]3[C@@H]1O [CytoB, cytochalasin B]
- calcium oscillations upon activation [1, 6]: normal calcium oscillations
- zinc sparks upon activation [1, 6]: only exhibit a single zinc spark

Compound: COc1ccc(N(CC(=O)O)CC(=O)O)c(OCCOc2cc(-c3c4cc(F)c(=O)cc-4oc4cc(O)c(F)cc34)ccc2NCC(=O)O)c1 [FluoZin-3]
- fluorescence turn-on for Zn [4]: 80 fold

Compound: CC(=O)OCOC(=O)CN(CC(=O)OCOC(C)=O)c1ccccc1OCCOc1ccccc1N(CC(=O)OCOC(C)=O)CC(=O)OCOC(C)=O [BAPTA AM]
- parthenogenetic activation on long-term exposure ([1]; 10 μM): did not parthenogenetically activate eggs
- calcium transients and zinc sparks ([1]; extended culture in strontium chloride): both calcium transients and zinc sparks were absent
- second polar body extrusion and pronucleus formation ([1]; strontium chloride activation): did not extrude a second polar body or form a pronucleus

Compound: CCOC(=O)COc1cc(NS(=O)(=O)c2ccc(C)cc2)c2nc(C)ccc2c1 [zinquin ethyl ester]
- pM value [5]: 9.3

Compound: carbonic anhydrase
- pM value [5]: 12.4
